In patent publication US20040163143A1, “Method for efficiently producing transgenic plant using auxin precursor” (NIPPON PAPER INDUSTRIES CO., LTD., priority 2002, published 2004):

Columns and labels:
[1] = system: E. globulus hypocotyl sections; test: E. globulus gene introduction test, vector pIAH6 (ipt + iaaH + GUS), adventitious bud redifferentiation and GUS staining; type: cell-based, Eucalyptus globulus; settings: for B/A Redifferentiation ratio / C/A Gene introduction ratio / C/B Selection efficiency: section basis
Method: Using a plasmid pIAH6 as a vector having a GUS gene as a model of a desired gene and an ipt gene and an iaaH gene as selectable marker genes, a transformant was produced by carrying out gene introduction into Eucalyptus globulus (hereinafter referred to as “E. globulus”) by the method of the present invention. Seeds of E. globulus from Chile were sterilized by soaking in 70% ethanol for about 1 minute and then soaking with stirring in a 2% aqueous sodium hypochlorite solution for about 4 hours, washed thoroughly with sterile water, inoculated on an MS agar medium to which 0.5 mg/l zeatin had been added and stored in a refrigerator at 4° C. for 2 days to accelerate germination, and then the germination was carried out by culturing at 25° C. under light conditions of about 10 μmol/m^2/s in light intensity. One to two weeks after the inoculation of the seeds onto the germination medium, hypocotyls were collected by cutting out apical buds, cotyledons and roots of the germinated seedlings, and the hypocotyls were cut into sections of about 5 mm to be used as samples for gene introduction and subjected to the following test. A. tumefaciens EHA105 introduced with the plasmid pIAH6 in the above item I was cultured overnight in the YEB liquid medium and then diluted to OD630 =0.5 with EG basal medium, and the sections of hypocotyl prepared in the above were soaked in the cell suspension. Next, each of the sections after removing excess cell suspension was co-cultured with Agrobacterium on an agar medium (agar 8.5 g/l) prepared by adding 1.0 mg/l zeatin, 0.05 mg/l NAA and 40 mg/l acetosyringone to the EG basal medium, at 25° C. for 3 days in the dark to thereby infect each section with the pIAH6-introduced Agrobacterium. In this case, a modified MS medium having an ammonia nitrogen/nitrate nitrogen concentration ratio of 1:3 (5 mM NH4, 15 mM NO3) was supplemented with 20 g/l sucrose and used as the EG basal medium. The sections after infection culturing were put on an EG basal agar medium (agar 8.5 g/l) supplemented with 500 mg/l ticarcillin and 1 μM or 10 μM of an auxin precursor analogue NAM, and the culturing was continued at 25° C. under light conditions of 30 to 40 μmol/m^2/s in light intensity while sub-culturing at an interval of 2 weeks using the same medium. Among these sections, the quicker ones redifferentiated adventitious buds after about 2 months of the Agrobacterium infection. Three months after the Agrobacterium infection, in order to examine expression of the GUS gene used as a model of the desired gene, the redifferentiated adventitious buds were subjected to a GUS staining test in accordance with the method of Jefferson et al. (Plant Mol. Biol. Rep., 5: 387-405 (1987)), and the degree of formation of desired gene-introduced adventitious buds was judged by examining the number of stained adventitious buds (the number of adventitious buds expressing the desired gene). An E. globulus gene introduction test was carried out in the same manner as in Example 1, except that the hypocotyl sections after the Agrobacterium infection were cultured using the EG basal agar medium (agar 8.5 g/l) supplemented with 500 mg/l ticarcillin and 0 μM, 1 μM or 10 μM NAA as auxin.

[2] = system: E. globulus hypocotyl sections; test: E. globulus gene introduction test, vector pIPT10 (ipt only + GUS), adventitious bud redifferentiation and GUS staining; type: cell-based, Eucalyptus globulus; settings: for B/A Redifferentiation ratio / C/A Gene introduction ratio / C/B Selection efficiency: section basis
Method: Seeds of E. globulus from Chile were sterilized by soaking in 70% ethanol for about 1 minute and then soaking with stirring in a 2% aqueous sodium hypochlorite solution for about 4 hours, washed thoroughly with sterile water, inoculated on an MS agar medium to which 0.5 mg/l zeatin had been added and stored in a refrigerator at 4° C. for 2 days to accelerate germination, and then the germination was carried out by culturing at 25° C. under light conditions of about 10 μmol/m^2/s in light intensity. One to two weeks after the inoculation of the seeds onto the germination medium, hypocotyls were collected by cutting out apical buds, cotyledons and roots of the germinated seedlings, and the hypocotyls were cut into sections of about 5 mm to be used as samples for gene introduction and subjected to the following test. A. tumefaciens EHA105 introduced with the plasmid pIAH6 in the above item I was cultured overnight in the YEB liquid medium and then diluted to OD630 =0.5 with EG basal medium, and the sections of hypocotyl prepared in the above were soaked in the cell suspension. Next, each of the sections after removing excess cell suspension was co-cultured with Agrobacterium on an agar medium (agar 8.5 g/l) prepared by adding 1.0 mg/l zeatin, 0.05 mg/l NAA and 40 mg/l acetosyringone to the EG basal medium, at 25° C. for 3 days in the dark to thereby infect each section with the pIAH6-introduced Agrobacterium. In this case, a modified MS medium having an ammonia nitrogen/nitrate nitrogen concentration ratio of 1:3 (5 mM NH4, 15 mM NO3) was supplemented with 20 g/l sucrose and used as the EG basal medium. The sections after infection culturing were put on an EG basal agar medium (agar 8.5 g/l) supplemented with 500 mg/l ticarcillin and 1 μM or 10 μM of an auxin precursor analogue NAM, and the culturing was continued at 25° C. under light conditions of 30 to 40 μmol/m^2/s in light intensity while sub-culturing at an interval of 2 weeks using the same medium. Among these sections, the quicker ones redifferentiated adventitious buds after about 2 months of the Agrobacterium infection. Three months after the Agrobacterium infection, in order to examine expression of the GUS gene used as a model of the desired gene, the redifferentiated adventitious buds were subjected to a GUS staining test in accordance with the method of Jefferson et al. (Plant Mol. Biol. Rep., 5: 387-405 (1987)), and the degree of formation of desired gene-introduced adventitious buds was judged by examining the number of stained adventitious buds (the number of adventitious buds expressing the desired gene). An E. globulus gene introduction test was carried out in the same manner as in Example 1, except that the hypocotyl sections after the Agrobacterium infection were cultured using the EG basal agar medium (agar 8.5 g/l) supplemented with 500 mg/l ticarcillin and 0 μM, 1 μM or 10 μM NAA as auxin. An E. globulus gene introduction test was carried out in the same manner as in Example 1 or Comparative Example 1, except that a plasmid pIPT10 having only the ipt gene as the selectable marker gene was used as the vector. Also, the vector also has the GUS gene as a model of the desired gene. Structure of T-DNA region of the pIPT10 used in this case is shown in FIG. 2, and results of the gene introduction test are shown in Table 3.

[3] = NAA 1 μM in medium, 62 sections tested
[4] = NAA 10 μM in medium, 40 sections tested

O=C(O)Cc1cccc2ccccc12 [NAA, naphthaleneacetic acid]
B Adventitious bud differentiated (number of sections) [1, 3]: 9 number of sections | C GUS + adventitious bud differentiated (number of sections) [1, 3]: 2 number of sections | B/A Redifferentiation ratio ([1]; NAA 1 μM in medium): 14.5% | C/A Gene introduction ratio ([1]; NAA 1 μM in medium): 3.2% | C/B Selection efficiency ([1]; NAA 1 μM in medium): 22.2% | B Adventitious bud differentiated (number of sections) [1, 4]: 13 number of sections | C GUS + adventitious bud differentiated (number of sections) [1, 4]: 1 number of sections | B/A Redifferentiation ratio ([1]; NAA 10 μM in medium): 32.5% | C/A Gene introduction ratio ([1]; NAA 10 μM in medium): 2.5% | C/B Selection efficiency ([1]; NAA 10 μM in medium): 7.7% | B Adventitious bud differentiated (number of sections) ([2]; additive 1 μM in medium): 9 number of sections | C GUS + adventitious bud differentiated (number of sections) ([2]; additive 1 μM in medium): 1 number of sections | B/A Redifferentiation ratio ([2]; additive 1 μM in medium): 20.5% | C/A Gene introduction ratio ([2]; additive 1 μM in medium): 2.3% | C/B Selection efficiency ([2]; additive 1 μM in medium): 11.1% | B Adventitious bud differentiated (number of sections) ([2]; additive 10 μM in medium): 7 number of sections | C GUS + adventitious bud differentiated (number of sections) ([2]; additive 10 μM in medium): 0 number of sections | B/A Redifferentiation ratio ([2]; additive 10 μM in medium): 15.9% | C/A Gene introduction ratio ([2]; additive 10 μM in medium): 0.0% | C/B Selection efficiency ([2]; additive 10 μM in medium): 0%
